Measurements published in patent US6790958B2, “Purine inhibitors of cyclin dependent kinase 2 & IKBA” (priority 1996, dated 2004).

How the values were obtained:
rat carotid artery = assay: Neointima formation following balloon angioplasty, rat carotid artery model; type: in vivo; settings: 5 mg/mL, acute local delivery, 14 days after injury, treated vs untreated segment
Excerpt: In this example, the left common carotid arteries of adult male rats (n=10 per experimental group) were surgically injured using a Fogarty arterial embolectomy catheter. Immediately after injury, the common carotid artery was bisected with a vascular clamp, thereby establishing an untreated and treated segment. A drug delivery catheter was then inserted into the distal half of the common carotid. After drug delivery, the catheter was removed and excess drug was washed out by removing the vascular clamp and re-establishing blood flow before closing the artery. The animals were allowed to recover for 14 days before harvesting the common carotid artery. The harvested tissue was sectioned and the neointimal area was digitized and measured with a computer planimetery system. For each animal, 15 measurements were averaged for the untreated segment and 15 for the treated. {2-[(2-aminoethyl)amino]-9-(methylethyl)purin-6-yl}[(4-chlorophenyl)methyl]amine was administered at a dose of 5 mg/mL reducing the neointimal area about 90% in comparison to the 6% reduction of saline alone.

[1] = test system: PupVSMC rat neonatal aortic smooth muscle cells; assay: Cell proliferation assay, PupVSMC; type: cell-based
Protocol: (§1) Early passage rat aortic smooth muscle cells (CV Therapeutics Cell repository) were seeded in 48 well dishes (Falcon, […]) at a density of 20,000 cells/ml of DME containing 5% heat inactivated bovine serum. The cells were incubated in a standard tissue culture incubator for 48 hr. The medium was aspirated and the wells were replenished with 0.2 ml of fresh medium. Compounds of this invention were added at concentrations ranging from 100 to 0.37 μg/ml. After 48 hr incubation, the medium was aspirated and the cultures were treated with 0.2 ml of saline 0.25 μl of phenozine methosulfate solution containing MTS (Cell Titer 96® Aqueous Non-radioactive cell proliferation assay kit, Catalog # G 5430, Promega, 2800 Woods Hollow Road, Madison, Wis. 53711-5399).
(§2) Similar assays were performed using the following cell lines; P388—mouse lymphoid neoplasm; L1210—mouse lympheytic leukemia; Caco2 human colon adenocarcinoma; MCF7 human breast adenocarcinoma; PupVSMC rat neonatal aortic smooth muscle cells; Ovcar human ovarian Carcinoma; Pancl human pancreatic adenocarcinoma; and HUVEC human umbilical cord endothelial cells.

[2] = test system: L1210 mouse lympheytic leukemia; assay: Cell proliferation assay, L1210; type: cell-based; settings: L 120 cells
Protocol: as §1, §2

[3] = test system: Caco2 human colon adenocarcinoma; assay: Cell proliferation assay, Caco2; type: cell-based; settings: Caco2 cells
Protocol: as §1, §2

[4] = test system: Pancl human pancreatic adenocarcinoma; assay: Cell proliferation assay, Panc1; type: cell-based; settings: Panc 1 cells
Protocol: as §1, §2

[5] = test system: P388 mouse lymphoid neoplasm; assay: Cell proliferation assay, P388; type: cell-based; settings: P388 cells
Protocol: as §1, §2

[6] = test system: Ovcar human ovarian Carcinoma; assay: Cell proliferation assay, OvCar; type: cell-based; settings: OvCar cells
Protocol: as §1, §2

[7] = test system: MCF7 human breast adenocarcinoma; assay: Cell proliferation assay, MCF7; type: cell-based; settings: MCF7 cells
Protocol: as §1, §2

| IC50 (μg/ml) for Inhibition of Cell Proliferation, L 120 [2] [µg/mL] | IC50 (μg/ml) for Inhibition of Cell Proliferation, Caco2 [3] [µg/mL] | IC50 (μg/ml) for Inhibition of Cell Proliferation, Panc 1 [4] [µg/mL] | IC50 (μg/ml) for Inhibition of Cell Proliferation, P 388 [5] [µg/mL] | IC50 (μg/ml) for Inhibition of Cell Proliferation, OvCar [6] [µg/mL] | IC50 (μg/ml) for Inhibition of Cell Proliferation, MCF7 [7] [µg/mL] | SMILES | reduction of the neointimal area (rat carotid artery) | inhibitory activity, Pup VSMC ([1]; Rat neonatal aortic smooth muscle cells, Table 9, the values are: IC50) [µg/mL] | IC50 (μg/ml) for Inhibition of Cell Proliferation, PupVSMC ([1]; PupVSMC cells, Table 8) [µg/mL] |
| --- | --- | --- | --- | --- | --- | --- | --- | --- | --- |
| – | – | – | – | – | – | CC(C)n1cnc2c(NCc3ccc(Cl)cc3)nc(NCCN)nc21 [{2-[(2-aminoethyl)amino]-9-(methylethyl)purin-6-yl}[(4-chlorophenyl)methyl]amine] | about 90% | 0.1 | – |
| 4.0 | 0.5 | 4.0 | 1.0 | 7.0 | 4.0 | CC(C)n1cnc2c(Nc3ccc(-c4ccccc4)cc3)nc(N(CCO)CCO)nc21 [2-diethanolamino-6-(4-phenylanilino)-9-isopropylpurine] | – | – | 1.0 |
